The numbers were not newly measured in Sander's compilation of Henry's law constants, which cites them from elsewhere.

Values joined by “and” are separate entries in the source; they are usually repeats but may differ in a detail not shown here. Equal entries are not always repeated.

This series in a line: Henry solubility constant Hcp at 298.15 K (mol/(m3 Pa)). To be noted: cited value.
Where [1] appears, read: reference: Burkholder et al. (2015).
Setting [2] is: reference: Burkholder et al. (2019).
The mark [3] stands for this setting: reference: Fogg and Sangster (2003).
[4] abbreviates: reference: Sander et al. (2006).
[5] abbreviates: reference: Sander et al. (2011).
Setting [6] is: reference: Barcelo and Hennion (1997).

As to `CCO` [ethanol], the “Henry solubility constant Hcp” value reads like this: (reference: Brockbank (2013)) 1.8; under setting [1], 1.9; under setting [2], 1.9; (reference: Dohnal et al. (2006)) 1.8; (reference: Dubowski (1979)) 1.9; under setting [3], 1.7. The “Henry solubility constant Hcp” value runs as follows: (reference: Gaffney and Senum (1984)) 2; under setting [4], 2; under setting [5], 1.9; (reference: Schaffer and Daubert (1969)) 1.5; (reference: Timmermans (1960)) 1.6; (reference: Warneck (2006)) 1.9.
Turning to `CCCCCC(C)O` (stereo not drawn) [2-heptanol], for the setting “reference: Brockbank (2013)”, the “Henry solubility constant Hcp” value is 0.33.
Regarding `O=C1CCCC1` [cyclopentanone], under “reference: Brockbank (2013)”, the “Henry solubility constant Hcp” value is 1.2.
Turning to `Oc1ccc(Cl)cc1Cl` [2,4-dichlorophenol], the “Henry solubility constant Hcp” value (reference: Goldstein (1982)) was 1.5.
In the case of `Clc1cc(Cl)c(Cl)c(Cl)c1` [1,2,3,5-tetrachlorobenzene], the “Henry solubility constant Hcp” value (reference: Meylan and Howard (1991)) was 0.0063.
On to `CCCCCCCCc1ccccc1` [octylbenzene], for which the “Henry solubility constant Hcp” value (reference: Brockbank (2013)) was 0.00018.
In the case of `CCOC(=O)CC` [ethyl propanoate], the “Henry solubility constant Hcp” value (reference: Brockbank (2013)) was 0.038.
Take `COc1ccc(-c2ccccc2)cc1NNC(=O)OC(C)C` [bifenazate]: the “Henry solubility constant Hcp” value (reference: MacBean (2012b)) was 1000.
On to `CCNc1ccccc1` [(ethylamino)-benzene], for which, where the note is “reference: Brockbank (2013)”, the “Henry solubility constant Hcp” value is 0.81.
For the molecule `[Kr]` [krypton], the “Henry solubility constant Hcp” value (reference: Clever (1979b)) is 2.5e-05.
Consider `CC(=O)OCCC(C)C` [3-methylbutyl ethanoate], for which the “Henry solubility constant Hcp” value is 0.021 (reference: Brockbank (2013)), 0.024 (reference: Goldstein (1982)) and 0.017 (reference: Meynier et al. (2003)).
Regarding `CC(=O)C(C)(C)C` [3,3-dimethyl-2-butanone], the “Henry solubility constant Hcp” value (reference: Brockbank (2013)) was 0.043.
Regarding `CCC(C)C=O` (stereo not drawn) [2-methylbutanal], the “Henry solubility constant Hcp” value (reference: Brockbank (2013)) is 0.025.
Take `CCCCCCCCCC` [decane]: the “Henry solubility constant Hcp” value (reference: Brockbank (2013)) was 1.3e-06.
As to `CC(=O)c1ccccc1` [1-phenylethanone], under “reference: Brockbank (2013)”, the “Henry solubility constant Hcp” value is 1.1.
For the molecule `FC(F)(F)F` [tetrafluoromethane], the “Henry solubility constant Hcp” value reads like this: under setting [1], 2.1e-06; under setting [2], 2.1e-06; under setting [5], 2.1e-06.
Turning to `COC(F)(F)C(Cl)Cl` [2,2-dichloro-1,1-difluoro-1-methoxyethane], under setting [3], the “Henry solubility constant Hcp” value was 0.0029.
`CCCCCCl` [1-chloropentane]: the “Henry solubility constant Hcp” value (reference: Brockbank (2013)) was 0.00041.
In the case of `CC(C)COC(=O)C(C)C` [2-methylpropyl 2-methylpropanoate], the “Henry solubility constant Hcp” value (reference: Brockbank (2013)) is 0.0074.
Turning to `CC(C)OC(C)C` [diisopropyl ether], where the note is “reference: Brockbank (2013)”, the “Henry solubility constant Hcp” value was 0.0045.
As to `C=C(C)C(=O)OC` [methyl methacrylate], the “Henry solubility constant Hcp” value (reference: Brockbank (2013)) was 0.029.
Consider `C1CCCCCC1` [cycloheptane], for which the “Henry solubility constant Hcp” value (reference: Brockbank (2013)) is 6.7e-05.
On to `CN(C)C(=O)Nc1ccccc1` [fenuron], for which the “Henry solubility constant Hcp” value under setting [6] was 36.
Consider `c1ccc(-c2ccccc2)cc1` [biphenyl], for which the “Henry solubility constant Hcp” value (reference: Brockbank (2013)) was 0.036.
With `COC(=O)OC` [carbonic acid, dimethyl ester], the “Henry solubility constant Hcp” value was 0.15 (reference: Brockbank (2013)), 0.16 under setting [1] and 0.16 under setting [2].
In the case of `COC(=O)c1ccccc1S(=O)(=O)NC(=O)N(C)c1nc(C)nc(OC)n1` [tribenuron-methyl], the “Henry solubility constant Hcp” value (reference: MacBean (2012b)) is 9.7e+07.
With `CCN` [ethanamine], the “Henry solubility constant Hcp” value reads like this: (reference: Brockbank (2013)) 0.84; under setting [1], 0.8; under setting [2], 0.8.
Turning to `[Xe]` [xenon], the “Henry solubility constant Hcp” value (reference: Clever (1979b)) is 4.3e-05.
`OCOO` [hydroxymethyl hydroperoxide]: the “Henry solubility constant Hcp” value is, setting by setting: under setting [1], 17000; under setting [2], 17000; under setting [4], 17000; under setting [5], 17000.
With `O=C(Nc1ccccc1-c1ccc(Cl)cc1)c1cccnc1Cl` [boscalid], the “Henry solubility constant Hcp” value (reference: MacBean (2012b)) is 19000.
For `CCc1cccc(C)c1N(C(=O)CCl)C(C)COC` (stereo not drawn) [metolachlor], the “Henry solubility constant Hcp” value under setting [6] was 11; the “Henry solubility constant Hcp” value under setting [3] is 620; the “Henry solubility constant Hcp” value (reference: Muir et al. (2004)) is 750 and 720; the “Henry solubility constant Hcp” value (reference: Rice et al. (1997b)) is 1200.
Take `FC(F)(F)C(F)(F)C(F)(F)C(F)(F)C(F)(F)F` [dodecafluoropentane]: the “Henry solubility constant Hcp” value (reference: Brockbank (2013)) was 4.6e-08.
Regarding `ClCCl` [dichloromethane], the “Henry solubility constant Hcp” value (reference: Brockbank (2013)) is 0.0037; the “Henry solubility constant Hcp” value under setting [1] is 0.0039; the “Henry solubility constant Hcp” value under setting [2] was 0.0039; the “Henry solubility constant Hcp” value (reference: Dilling (1977)) is 0.0037; the “Henry solubility constant Hcp” value (reference: Dilling et al. (1975)) is 0.0037; the “Henry solubility constant Hcp” value (reference: Goldstein (1982)) is 0.0031. Besides, the “Henry solubility constant Hcp” value is, setting by setting: (reference: Harrison et al. (1993)) 0.0042 and 0.0034; under setting [4], 0.0036; under setting [5], 0.0036.
In the case of `CCCOC=O` [propyl methanoate], the “Henry solubility constant Hcp” value is 0.031 (reference: Brockbank (2013)), 0.026 under setting [1], 0.026 under setting [2] and 0.026 under setting [5].
With `Cc1ccncc1` [4-methylpyridine], under “reference: Brockbank (2013)”, the “Henry solubility constant Hcp” value was 1.6.
In the case of `CC(C)OC(=O)Nc1cccc(Cl)c1` [chlorpropham], the “Henry solubility constant Hcp” value under setting [6] is 47.
`CC1CCCCC1` [methylcyclohexane]: where the note is “reference: Brockbank (2013)”, the “Henry solubility constant Hcp” value was 2.6e-05.
For `CCC(C)(C)CC` [3,3-dimethylpentane], the “Henry solubility constant Hcp” value (reference: Brockbank (2013)) was 5.6e-06.
Turning to `Nc1ccccc1Cl` [1-amino-2-chlorobenzene], the “Henry solubility constant Hcp” value (reference: Brockbank (2013)) was 1.9.
`CCCCOC=O` [butyl methanoate]: the “Henry solubility constant Hcp” value (reference: Brockbank (2013)) was 0.026.
In the case of `c1ccc2cc3cc4ccccc4cc3cc2c1` [naphthacene], the “Henry solubility constant Hcp” value (reference: Mackay et al. (1992b)) was 250.
On to `O=C(Nc1ccccc1)Nc1ccnc(Cl)c1` [forchlorfenuron], for which the “Henry solubility constant Hcp” value (reference: MacBean (2012b)) was 3.5e+06.
As for `CN(C)C` [trimethylamine], the “Henry solubility constant Hcp” value by setting is: under setting [1], 0.099; under setting [2], 0.099.
For `CC(C)O` [2-propanol], the “Henry solubility constant Hcp” value is 1.2 (reference: Brockbank (2013)); 1.2 under setting [1]; 1.2 under setting [2]; 1.2 under setting [3]; 1.7 (reference: Hine and Weimar (1965)); 1.3 under setting [4]. Further, under setting [5], the “Henry solubility constant Hcp” value was 1.3.
In the case of `FC(F)OC(F)(F)C(F)Cl` (stereo not drawn) [2-chloro-1,1,2-trifluoroethyl difluoromethyl ether], the “Henry solubility constant Hcp” value under setting [3] was 0.0003.
As for `CC(=O)C(C)C` [3-methyl-2-butanone], the “Henry solubility constant Hcp” value (reference: Brockbank (2013)) was 0.11.
For `CCc1ccccc1` [ethylbenzene], the “Henry solubility constant Hcp” value is 0.0013 (reference: Brockbank (2013)), 0.0014 under setting [3] and 0.0016 (reference: Goldstein (1982)).
Consider `C=CCCCCCCCCCCCC` [1-tetradecene], for which the “Henry solubility constant Hcp” value (reference: Brockbank (2013)) is 3e-06.
Take `CC(=O)OO` [ethanoic peroxyacid]: the “Henry solubility constant Hcp” value is 8.3 under setting [1], 8.3 under setting [2] and 8.3 under setting [5].
Take `CNC(C)=O` [N-methylacetamide]: the “Henry solubility constant Hcp” value runs as follows: under setting [1], 2100; under setting [2], 2100.
